Legend:
[1] = biological target: T1, full-length B-Catenin (Uniprot ID P35222) (Homo sapiens, UniProt P35222); experiment: Alphascreen binding assay (beta-catenin / biotin-TCF4 10-53)
T1 construct: 65 nM full-length B-Catenin (Uniprot ID P35222)
T1 sequence (P35222 1-781): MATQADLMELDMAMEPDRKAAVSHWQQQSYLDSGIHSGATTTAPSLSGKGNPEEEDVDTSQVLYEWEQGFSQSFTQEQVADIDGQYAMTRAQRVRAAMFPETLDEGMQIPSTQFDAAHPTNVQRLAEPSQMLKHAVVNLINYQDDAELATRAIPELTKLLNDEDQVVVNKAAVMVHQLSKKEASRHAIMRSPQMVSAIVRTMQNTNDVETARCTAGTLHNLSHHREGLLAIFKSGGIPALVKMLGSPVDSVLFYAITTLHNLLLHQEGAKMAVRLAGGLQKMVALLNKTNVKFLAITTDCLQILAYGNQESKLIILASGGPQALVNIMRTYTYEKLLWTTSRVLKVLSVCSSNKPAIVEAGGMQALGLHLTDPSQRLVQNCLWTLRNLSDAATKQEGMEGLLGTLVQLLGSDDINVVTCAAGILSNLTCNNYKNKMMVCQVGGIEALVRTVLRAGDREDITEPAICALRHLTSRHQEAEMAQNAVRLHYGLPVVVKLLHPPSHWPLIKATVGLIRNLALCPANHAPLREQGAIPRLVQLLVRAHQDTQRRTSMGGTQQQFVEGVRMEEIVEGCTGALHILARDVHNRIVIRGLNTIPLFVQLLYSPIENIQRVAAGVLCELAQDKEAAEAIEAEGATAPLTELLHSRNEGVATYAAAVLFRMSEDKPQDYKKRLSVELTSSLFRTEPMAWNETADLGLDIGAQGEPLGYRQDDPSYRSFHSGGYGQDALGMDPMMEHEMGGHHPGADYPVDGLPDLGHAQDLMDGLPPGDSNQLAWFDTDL
Method in brief: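 Final concentrations: 65 nM full-length human β-catenin plus 10 nM biotin-TCF4(10-53) peptide, test peptide 3-fold from 10 uM to 5 nM, preincubated 15 min at 20 °C in Tris pH 8.0/250 mM NaCl buffer. Nickel-chelate AlphaScreen donor/acceptor beads then added for 60 min in the dark; duplicate reads fitted to 1:1 binding model with Hill slope.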

[2] = CHI Log D procedure; format: physicochemical; conditions: for chromatographic logD: pH 7.4, CHI Log D; for CHI Log D: pH 7.4

SMILES	EC50 [1]	chromatographic logD [2]	CHI Log D [2]
CC[C@H](C)[C@H](NC(=O)[C@H](CC(=O)O)NC(C)=O)C(=O)N[C@]1(C)CCN(C)C(=O)OCC=CCCCCC[C@@](C)(C(=O)N[C@@H](Cc2ccccc2)C(=O)N[C@@H](Cc2c[nH]c3ccccc23)C(=O)N[C@@H](Cc2c[nH]cn2)C(N)=O)NC(=O)[C@H](CCC(N)=O)NC(=O)[C@H](Cc2ccccc2)NC(=O)[C@H](C)NC(=O)[C@H](C)NC(=O)[C@H](CC(=O)O)NC(=O)[C@H](CC(=O)O)NC1=O [I-150, Ac-Asp-Ile-RdN-Asp-Asp-Ala-Ala-Phe-Gln-S7-Phe-Trp-His-NH2]	1.94 µM	–	1.297
CC[C@H](C)[C@H](NC(=O)[C@H](CC(=O)O)NC(C)=O)C(=O)N[C@]1(C)CCN(C)C(=O)OCC=CCCCCC[C@@](C)(C(=O)N[C@@H](Cc2ccccc2)C(=O)N[C@@H](Cc2c[nH]c3ccccc23)C(N)=O)NC(=O)[C@H](CCC(N)=O)NC(=O)[C@H](Cc2ccccc2)NC(=O)[C@H](C)NC(=O)[C@H](C)NC(=O)[C@H](CC(=O)O)NC(=O)[C@H](CC(=O)O)NC1=O [I-151, Ac-Asp-Ile-RdN-Asp-Asp-Ala-Ala-Phe-Gln-S7-Phe-Trp-NH2]	5.5 µM	1.35	–
CC[C@H](C)[C@H](NC(=O)[C@H](CC(=O)O)NC(=O)[C@H](C)NC(C)=O)C(=O)N[C@]1(C)CCN(C)C(=O)OCC=CCCCCC[C@@](C)(C(=O)N[C@@H](Cc2ccccc2)C(=O)N[C@@H](Cc2c[nH]c3ccccc23)C(=O)N[C@@H](C)C(N)=O)NC(=O)[C@H](C)NC(=O)[C@H](Cc2ccccc2)NC(=O)[C@H](C)NC(=O)[C@H](C)NC(=O)[C@H](CCC(=O)O)NC(=O)[C@H](CC(=O)O)NC1=O [I-155, Ac-Ala-Asp-Ile-RdN-Asp-Glu-Ala-Ala-Phe-Ala-S7-Phe-Trp-Ala-NH2]	0.734 µM	–	1.415
CC(=O)NC(C)(C)C(=O)N[C@@H](CC(=O)O)C(=O)N[C@@H](C)C(=O)N[C@]1(C)CCCCCCC=CCOC(=O)N2CC[C@@](C(=O)N[C@@H](Cc3ccccc3)C(=O)N[C@@H](Cc3c[nH]c4ccccc34)C(=O)NC(C)(C)C(N)=O)(C2)NC(=O)[C@H](C(C)C)NC(=O)[C@H](Cc2ccccc2)NC(=O)[C@H](C)NC(=O)[C@H](C)NC(=O)[C@H](CCC(=O)O)NC(=O)[C@H](CC(=O)O)NC1=O [I-160, Ac-Aib-Asp-Ala-R8-Asp-Glu-Ala-Ala-Phe-Val-PyrS-Phe-Trp-Aib-NH2]	3.24 µM	–	1.49
COc1ccc2[nH]cc(C[C@H](NC(=O)[C@H](Cc3ccccc3)NC(=O)[C@]3(C)CCCCCCC=CCCCC4(CCCC=CC[C@]5(CCCN5C(C)=O)C(=O)N[C@@H](CC(=O)O)C(=O)N[C@@H](C)C(=O)N4)C(=O)N[C@@H](CC(=O)O)C(=O)N[C@@H](CCC(=O)O)C(=O)N[C@@H](C)C(=O)N[C@@H](C)C(=O)N[C@@H](Cc4ccccc4)C(=O)N[C@@H](C(C)C)C(=O)N3)C(=O)N[C@@H](CCC(N)=O)C(N)=O)c2c1 (stereo partly drawn) [I-165, Ac-PL3-Asp-Ala-B5-Asp-Glu-Ala-Ala-Phe-Val-S8-Phe-5MeOW-Gln-NH2]	1.23 µM	2	–
CC(=O)N1CCC[C@]12CC=CCCCC1(CCCC=CCCCCCC[C@@](C)(C(=O)N[C@@H](Cc3ccccc3)C(=O)N[C@@H](Cc3ccc4ccccc4c3)C(=O)N[C@@H](C)C(N)=O)NC(=O)[C@H](C)NC(=O)[C@H](Cc3ccc(F)c(F)c3)NC(=O)[C@H](C)NC(=O)[C@H](C)NC(=O)[C@H](CCC(=O)O)NC(=O)[C@H](CC(=O)O)NC1=O)NC(=O)[C@H](C)NC(=O)[C@H](CC(=O)O)NC2=O (stereo partly drawn) [I-185, Ac-PL3-Asp-Ala-B5-Asp-Glu-Ala-Ala-34FF-Ala-S8-Phe-2NapA-Ala-NH2]	2.66 µM	2.3	–

More lines, in order of falling EC50 [1], values ahead:

EC50 [1]	chromatographic logD [2]	CHI Log D [2]	SMILES
9.21 µM	2.18	–	CC(=O)N1CCC[C@]12CC=CCCCC1(CCCC=CCCCCCC[C@@](C)(C(=O)N[C@@H](Cc3ccccc3)C(=O)N[C@@H](Cc3c[nH]c4ccc(C(F)(F)F)cc34)C(=O)N[C@@H](CCC(N)=O)C(N)=O)NC(=O)[C@H](C(C)C)NC(=O)[C@H](Cc3ccccc3)NC(=O)[C@H](C)NC(=O)[C@H](C)NC(=O)[C@H](CCC(=O)O)NC(=O)[C@H](CC(=O)O)NC1=O)NC(=O)[C@H](C)NC(=O)[C@H](CC(=O)O)NC2=O (stereo partly drawn) [I-169, Ac-PL3-Asp-Ala-B5-Asp-Glu-Ala-Ala-Phe-Val-S8-Phe-5CF3W-Gln-NH2]
6.2 µM	–	1.927	CC(=O)N1CCC[C@]12CC=CCCCC1(CCCC=CCCCCCC[C@@](C)(C(=O)N[C@@H](Cc3ccccc3)C(=O)N[C@@H](CC3CNc4ccccc43)C(=O)N[C@@H](CCC(N)=O)C(N)=O)NC(=O)[C@H](C(C)C)NC(=O)[C@H](Cc3ccccc3)NC(=O)[C@H](C)NC(=O)[C@H](C)NC(=O)[C@H](CCC(=O)O)NC(=O)[C@H](CC(=O)O)NC1=O)NC(=O)[C@H](C)NC(=O)[C@H](CC(=O)O)NC2=O (stereo partly drawn) [I-167, Ac-PL3-Asp-Ala-B5-Asp-Glu-Ala-Ala-Phe-Val-S8-Phe-H2Trp-Gln-NH2]
5.64 µM	–	1.942	CC(=O)N1CCC[C@]12CC=CCCCC1(CCCC=CCCCCCC[C@@](C)(C(=O)N[C@@H](Cc3ccccc3)C(=O)N[C@@H](CC3CNc4ccccc43)C(=O)N[C@@H](CCC(N)=O)C(N)=O)NC(=O)[C@H](C(C)C)NC(=O)[C@H](Cc3ccccc3)NC(=O)[C@H](C)NC(=O)[C@H](C)NC(=O)[C@H](CCC(=O)O)NC(=O)[C@H](CC(=O)O)NC1=O)NC(=O)[C@H](C)NC(=O)[C@H](CC(=O)O)NC2=O (stereo partly drawn) [I-168, Ac-PL3-Asp-Ala-B5-Asp-Glu-Ala-Ala-Phe-Val-S8-Phe-H2Trp-Gln-NH2]
4.18 µM	1.07	–	CC(=O)N[C@@H](C)C(=O)N[C@@H](CC(=O)O)C(=O)N[C@@H](C)C(=O)N[C@]1(C)CCN(C)C(=O)OCC=CCCCCC[C@@](C)(C(=O)N[C@@H](Cc2ccccc2)C(=O)N[C@@H](Cc2c[nH]c3ccccc23)C(=O)N[C@@H](Cc2c[nH]cn2)C(N)=O)NC(=O)[C@H](CCC(N)=O)NC(=O)[C@H](Cc2ccccc2)NC(=O)[C@H](C)NC(=O)[C@H](C)NC(=O)[C@H](CCC(=O)O)NC(=O)[C@H](CC(=O)O)NC1=O [I-156, Ac-Ala-Asp-Ala-RdN-Asp-Glu-Ala-Ala-Phe-Gln-S7-Phe-Trp-His-NH2]
2.17 µM	–	1.23	CC(=O)NC(C)(C)C(=O)N[C@@H](CC(=O)O)C(=O)N[C@@H](C)C(=O)N[C@]1(C)CCCCCCC=CCOC(=O)N2CC[C@@](C(=O)N[C@@H](Cc3ccccc3)C(=O)N[C@@H](Cc3c[nH]c4ccccc34)C(=O)N[C@@H](CCC(N)=O)C(N)=O)(C2)NC(=O)[C@H](C(C)C)NC(=O)[C@H](Cc2ccccc2)NC(=O)[C@H](C)NC(=O)[C@H](C)NC(=O)[C@H](CCC(=O)O)NC(=O)[C@H](CC(=O)O)NC1=O [I-158, Ac-Aib-Asp-Ala-R8-Asp-Glu-Ala-Ala-Phe-Val-PyrS-Phe-Trp-Gln-NH2]
2.07 µM	–	2.204	CC(=O)N1CCC[C@]12CC=CCCCC1(CCCC=CCCCCCC[C@@](C)(C(=O)N[C@@H](Cc3ccccc3)C(=O)N[C@@H](Cc3c[nH]c4ccc(C5CC5)cc34)C(=O)N[C@@H](CCC(N)=O)C(N)=O)NC(=O)[C@H](C(C)C)NC(=O)[C@H](Cc3ccccc3)NC(=O)[C@H](C)NC(=O)[C@H](C)NC(=O)[C@H](CCC(=O)O)NC(=O)[C@H](CC(=O)O)NC1=O)NC(=O)[C@H](C)NC(=O)[C@H](CC(=O)O)NC2=O (stereo partly drawn) [I-171, Ac-PL3-Asp-Ala-B5-Asp-Glu-Ala-Ala-Phe-Val-S8-Phe-5CpW-Gln-NH2]
1.22 µM	2	–	CC(=O)N1CCC[C@]12CC=CCCCC1(CCCC=CCCCCCC[C@@](C)(C(=O)N[C@@H](Cc3ccccc3)C(=O)N[C@@H](Cc3c[nH]c4ccc(F)cc34)C(=O)N[C@@H](CCC(N)=O)C(N)=O)NC(=O)[C@H](C(C)C)NC(=O)[C@H](Cc3ccccc3)NC(=O)[C@H](C)NC(=O)[C@H](C)NC(=O)[C@H](CCC(=O)O)NC(=O)[C@H](CC(=O)O)NC1=O)NC(=O)[C@H](C)NC(=O)[C@H](CC(=O)O)NC2=O (stereo partly drawn) [I-146, Ac-PL3-Asp-Ala-B5-Asp-Glu-Ala-Ala-Phe-Val-S8-Phe-5FW-Gln-NH2]
0.518 µM	–	2.041	CC(=O)N1CCC[C@]12CC=CCCCC1(CCCC=CCCCCCC[C@@](C)(C(=O)N[C@@H](Cc3ccccc3)C(=O)N[C@@H](Cc3c[nH]c4ccccc34)C(=O)N[C@@H](C)C(N)=O)NC(=O)[C@H](C)NC(=O)[C@H](Cc3ccccc3)NC(=O)[C@H](C)NC(=O)[C@H](C)NC(=O)[C@H](CCC(=O)O)NC(=O)[C@H](CC(=O)O)NC1=O)NC(=O)[C@H](C)NC(=O)[C@H](CC(=O)O)NC2=O (stereo partly drawn) [I-186, Ac-PL3-Asp-Ala-B5-Asp-Glu-Ala-Ala-Phe-Ala-S8-Phe-Trp-Ala-NH2]

— patent US20240116985A1, “STAPLED PEPTIDES AND METHODS THEREOF” (priority 2020, published 2024)
